This is an account of results in US20050208029A1, “Method of forming pancreatic beta cells from mesenchymal cells” (priority 2002, published 2005).

In this experiment the test system is KUSA/A1 cells. The experiment can be described thus: Insulin concentration (ELISA) in supernatant of KUSA/A1 cells cultured 12 days with or without bFGF. Type of experiment: cell-based, mouse. The following applies: 2 h after 25.0 mM glucose. The procedure: The KUSA/A1 cells obtained in Example 1 were treated with trypsin and transferred to a 6-well dish (product of Falcon) so that the cell density might become as low as possible.
The cells were cultured in serum-free DMEM containing insulin, transferrin, progesterone, putrescine and selenium or in DMEM containing 10% FBS at 33° C. for 12 days using an incubator with a CO2 concentration of 5%.
bFGF (recombinant human basic fibroblast growth factor; product of R&D) was added to each of the serum-free or serum-containing wells to a final concentration of 10 ng/ml. Hereafter, unless otherwise specified, cell culture was carried out under the same conditions while medium exchange was conducted at 2-day intervals.
After 12 days of cultivation, the medium in each well was discarded, the cells in each well were washed repeatedly with three portions of PBS. After washing, 2 ml of PBS was added to each well afresh, and cultivation was performed at 33° C. for 2 hours using an incubator with a CO2 concentration of 5%.
After 2 hours of cultivation, the PBS was discarded, 2 ml of DMEM containing 25.0 mM glucose was added afresh, and cultivation was performed at 33° C. for further 2 hours using an incubator with a CO2 concentration of 5%. […]

For “bFGF: recombinant human basic fibroblast growth factor; product of R&D; used as pancreatic β cell forming agent”, the “insulin detected in the supernatant” value runs as follows: (DMEM containing bFGF (10 ng/ml) and 10% FBS, below assay sensitivity limit) “below 39 pg/mL”; (serum-free DMEM containing bFGF (10 ng/ml), insulin, transferrin, progesterone, putrescine and selenium) 223 pg/mL.
